According to the Deep4Chem optical property database:

Experiment: solvent given as SMILES

CC(C)(C)NC(=O)c1cccc2ccc3c4ccccc4c4ccccc4c3c12
fluorescence lifetime (in ClCCl): 1.74 ns

COc1ccc(-c2ccc(-c3ccc(C#N)s3)s2)cc1
fluorescence lifetime (in C1CCCCC1): 0.23 ns | fluorescence lifetime (in C1COCCO1): 0.38 ns | fluorescence lifetime (in CC#N): 0.97 ns | fluorescence lifetime (in CC(C)O): 0.89 ns | fluorescence lifetime (in CCCCO): 0.91 ns | fluorescence lifetime (in CCO): 0.93 ns | fluorescence lifetime (in CCOC(C)=O): 0.44 ns | fluorescence lifetime (in CN(C)C=O): 1.44 ns | fluorescence lifetime (in CO): 1.06 ns | fluorescence lifetime (in CS(C)=O): 1.76 ns | fluorescence lifetime (in Cc1ccccc1): 0.34 ns | fluorescence lifetime (in ClC(Cl)Cl): 0.6 ns | fluorescence lifetime (in ClCCl): 0.74 ns | fluorescence lifetime (in O): 0.91 ns

CC[n+]1c(C=C2C(=O)C(C=C3N(C)c4ccc(Cl)cc4C3(C)C)=C2[O-])sc2ccccc21
fluorescence lifetime (in CO): 0.26 ns | fluorescence lifetime (in ClC(Cl)Cl): 1.65 ns

F[B-]1(F)OC(C#Cc2ccccc2)=C2CCc3ccccc3C2=[O+]1
fluorescence lifetime (in ClCCl): 2.79 ns

F[B-]1(F)OC(c2ccc(N3CCCCC3)cc2)=Cc2cccc[n+]21
fluorescence lifetime (in ClC(Cl)Cl): 2.68 ns

Cc1ccc(-c2c3ccc([nH]3)c3nc(c(-c4ccc(C#N)cc4)c4ccc([nH]4)c4ccc([nH]4)c(-c4ccc(C)cc4)c4ccc2o4)C=C3)cc1
fluorescence lifetime (in C1CCOC1): 5.26 ns | fluorescence lifetime (in Cc1ccccc1): 4.39 ns | fluorescence lifetime (in c1ccccc1): 5.94 ns

CCCCn1c(-c2ccc(-c3nnc(-c4ccc(-c5nc6c7ccccc7c7ccccc7c6n5CCCC)cc4)o3)cc2)nc2c3ccccc3c3ccccc3c21
fluorescence lifetime (in ClCCl): 1.64 ns

Oc1ccccc1-c1nc2c(c3c1-c1ccccc1CC3)-c1ccccc1CC2
fluorescence lifetime (in ClCCl): 2.75 ns

Cc1ccc(-[c+]2c3ccccc3sc3ccccc32)cc1
fluorescence lifetime (in CC#N): 1 ns

c1ccc(-c2cc(-c3ccc(-c4nc(-c5ccccn5)c(-c5ccccn5)[nH]4)cc3)cc(-c3ccccn3)n2)nc1
fluorescence lifetime (in C1CCOC1): 1.46 ns | fluorescence lifetime (in CC#N): 1.44 ns | fluorescence lifetime (in CC(C)=O): 1.09 ns | fluorescence lifetime (in CCCCCC): 0.065 ns | fluorescence lifetime (in CCO): 2.04 ns | fluorescence lifetime (in CCOC(C)=O): 1.18 ns | fluorescence lifetime (in CN(C)C=O): 1.91 ns | fluorescence lifetime (in CO): 1.41 ns | fluorescence lifetime (in CS(C)=O): 2.04 ns | fluorescence lifetime (in ClC(Cl)Cl): 1.19 ns | fluorescence lifetime (in ClCCl): 3.43 ns | fluorescence lifetime (in O): 2.39 ns

F[B-]1(F)OC(c2ccc3c(c2)Cc2ccccc2-3)=CC(c2ccccc2)=[O+]1
fluorescence lifetime (in CC#N): 2.6 ns

c1cc(N2CCCC2)ccn1
fluorescence lifetime (in CC1CCCCC1): 11 ns

OCc1cc2c(cc3ccc4cccc5ccc2c3c45)[nH]1
fluorescence lifetime (in CCOC(C)=O): 2.64 ns

CCN(CC)c1ccc(-c2nc3c(nc2-c2ccc(B(c4c(C)cc(C)cc4C)c4c(C)cc(C)cc4C)cc2)c2ccccc2n3C)cc1
fluorescence lifetime (in C1CCOC1): 2.33 ns

Cc1ccc(C)cc1
fluorescence lifetime (in C1CCCCC1): 47 ns

Fc1c(F)c(-n2c3ccccc3c3ccccc32)c(F)c(F)c1-c1nnc(-c2ccccc2)o1
fluorescence lifetime (in Cc1ccccc1): 6.7 ns

CC(C)(C)c1ccc2c(c1)c1cc(C(C)(C)C)ccc1n2-c1ccc(C#Cc2ccc3c4ccc(C#Cc5ccc(C=O)cc5)cc4n(-c4ccc(C(F)(F)F)cc4)c3c2)cc1
fluorescence lifetime (in ClCCl): 0.84 ns

CC(C)c1cccc(C(C)C)c1N1C(=O)c2cccc3c(Oc4ccc(C(C)(C)c5ccccc5)cc4)ccc(c23)C1=O
fluorescence lifetime (in ClCCl): 1.2 ns

C1=Cc2nc1c(-c1cccs1)c1ccc([nH]1)c(-c1cccs1)c1nc(c(-c3cccs3)c3ccc([nH]3)c2-c2cccs2)C=C1
fluorescence lifetime (in CN(C)C=O): 2.09 ns | fluorescence lifetime (in ClCCl): 9.27 ns

CCC12C(=C3C(=C4c5ccc(-c6ccc(C(C)=O)s6)cc5S(=O)(=O)C41CC)C(F)(F)C(F)(F)C3(F)F)c1ccc(-c3ccc(C(C)=O)s3)cc1S2(=O)=O (stereo not given)
fluorescence lifetime (in C1COCCO1): 1.9 ns

COc1c2ccccc2c(OC)c2c1c1cc(F)ccc1n2C
fluorescence lifetime (in C1CCCCC1): 25 ns | fluorescence lifetime (in CC#N): 25.3 ns | fluorescence lifetime (in CO): 26.7 ns | fluorescence lifetime (in ClCCl): 23.2 ns

CCCCCCn1c2cc(/C=C(\C#N)c3ccccc3)ccc2c2ccc(/C=C(\C#N)c3ccccc3)cc21
fluorescence lifetime (in ClC(Cl)Cl): 0.58 ns

Cc1cc2nc3[nH]c(=O)[nH]c(=O)c3nc2cc1C
fluorescence lifetime (in CC#N): 0.64 ns

CCC1=C(C)C2=C(C)c3c(I)c(I)c(I)n3[B-](F)(F)[N+]2=C1C
fluorescence lifetime (in C1CCCCC1): 0.331 ns | fluorescence lifetime (in CC(C)=O): 0.206 ns | fluorescence lifetime (in CCO): 0.221 ns | fluorescence lifetime (in CCOC(C)=O): 0.241 ns | fluorescence lifetime (in CO): 0.214 ns | fluorescence lifetime (in OCC(F)(F)F): 0.21 ns

CCCCCCN1C(=O)c2cccc3c(-c4ccc(-c5ccc(-c6ccc7c8c(cccc68)C(=O)N(CCCCCC)C7=O)s5)s4)ccc(c23)C1=O
fluorescence lifetime (in ClC(Cl)Cl): 0.535 ns

c1cc2c3c(cccc3c1)C(N1CCOCCNCCOCCOCC1)=N2
fluorescence lifetime (in CC#N): 0.52 ns

c1ccc(Nc2nc(Nc3ccccc3)nc(Nc3ccc4c5cccc6cccc(c7cccc3c74)c65)n2)cc1
fluorescence lifetime (in CCOC(C)=O): 3.6 ns | fluorescence lifetime (in CS(C)=O): 4.3 ns

Cc1cccc2nc3c(=O)[nH]c(=O)[nH]c3nc12
fluorescence lifetime (in C1COCCO1): 0.5 ns | fluorescence lifetime (in CC#N): 0.7 ns | fluorescence lifetime (in CCO): 1.35 ns | fluorescence lifetime (in CO): 1.6 ns | fluorescence lifetime (in ClCCCl): 0.74 ns | fluorescence lifetime (in O): 7.3 ns
